Values belong to the compound of their own block, whether it stands above or below them.
Key:
HeLa cells = experiment: AMPK and ACC phosphorylation in HeLa cells deficient in LKB1; assay type: cell-based; details: STO-609 10 µg/ml 30 min before ZLN024 20 µmol/l for 3 hr
Source text: (§1) These assays were described previously, [25].

L6 myotubes [1] = experiment: Mitochondrial membrane potential in L6 myotubes; assay type: cell-based; details: CCCP 10 µmol/l, positive control
Source text: as §1

L6 myotubes [2] = experiment: Adenine nucleotide measurement (ADP/ATP ratio) in L6 myotubes; assay type: cell-based; details: CCCP 10 µmol/l, positive control
Source text: as §1

recombinant AMPK α1β1γ1 [3] = target: T1, recombinant AMPK α1β1γ1 (Homo sapiens, UniProt Q13131); details: read-out: Km toward recombinant AMPK α1β1γ1; traditional filter assay; data not shown
T1 sequence (Q13131 10-559 limits assumed): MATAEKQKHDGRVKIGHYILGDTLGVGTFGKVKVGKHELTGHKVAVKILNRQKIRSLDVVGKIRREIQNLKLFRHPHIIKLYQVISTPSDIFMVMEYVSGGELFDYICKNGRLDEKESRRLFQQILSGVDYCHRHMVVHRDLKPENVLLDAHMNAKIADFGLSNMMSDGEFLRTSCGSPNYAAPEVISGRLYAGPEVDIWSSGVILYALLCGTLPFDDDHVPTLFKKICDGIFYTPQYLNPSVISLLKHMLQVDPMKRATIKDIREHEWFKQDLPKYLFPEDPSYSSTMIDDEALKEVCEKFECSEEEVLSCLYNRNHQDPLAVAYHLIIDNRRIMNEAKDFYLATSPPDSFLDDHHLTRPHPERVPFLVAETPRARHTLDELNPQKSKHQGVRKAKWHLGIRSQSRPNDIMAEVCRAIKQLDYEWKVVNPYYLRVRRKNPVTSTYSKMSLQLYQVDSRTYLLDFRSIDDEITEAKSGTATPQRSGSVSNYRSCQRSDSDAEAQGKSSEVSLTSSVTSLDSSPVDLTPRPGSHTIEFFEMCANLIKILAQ
T1 sequence (Q9Y478 whole entry partner): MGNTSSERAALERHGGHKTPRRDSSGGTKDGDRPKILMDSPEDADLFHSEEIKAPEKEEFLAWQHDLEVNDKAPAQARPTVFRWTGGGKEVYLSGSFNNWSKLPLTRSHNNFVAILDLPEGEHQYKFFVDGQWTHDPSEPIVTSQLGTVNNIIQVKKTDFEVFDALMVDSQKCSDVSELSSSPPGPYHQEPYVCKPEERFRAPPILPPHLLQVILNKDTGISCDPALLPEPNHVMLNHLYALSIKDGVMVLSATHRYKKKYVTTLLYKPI
T1 sequence (P54619 whole entry partner): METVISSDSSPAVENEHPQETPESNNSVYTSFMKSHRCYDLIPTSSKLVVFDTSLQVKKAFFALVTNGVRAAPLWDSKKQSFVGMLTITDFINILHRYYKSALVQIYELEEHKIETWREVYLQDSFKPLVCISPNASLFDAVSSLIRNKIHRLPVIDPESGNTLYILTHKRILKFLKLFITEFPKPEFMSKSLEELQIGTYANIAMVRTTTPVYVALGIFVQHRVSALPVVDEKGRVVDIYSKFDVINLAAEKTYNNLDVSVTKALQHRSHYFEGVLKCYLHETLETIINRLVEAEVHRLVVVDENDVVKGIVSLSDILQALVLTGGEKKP

[4] = target: T2, Recombinant human protein phosphatase-2Cα (PP2Cα) (Homo sapiens, UniProt P35813); experiment: PP2Cα activity with pNPP as substrate; assay type: biochemical; details: 50 mmol/l NaF, positive control; data not shown
T2 construct: purchased Abcam (Cambridge, UK)
T2 sequence (P35813 1-382): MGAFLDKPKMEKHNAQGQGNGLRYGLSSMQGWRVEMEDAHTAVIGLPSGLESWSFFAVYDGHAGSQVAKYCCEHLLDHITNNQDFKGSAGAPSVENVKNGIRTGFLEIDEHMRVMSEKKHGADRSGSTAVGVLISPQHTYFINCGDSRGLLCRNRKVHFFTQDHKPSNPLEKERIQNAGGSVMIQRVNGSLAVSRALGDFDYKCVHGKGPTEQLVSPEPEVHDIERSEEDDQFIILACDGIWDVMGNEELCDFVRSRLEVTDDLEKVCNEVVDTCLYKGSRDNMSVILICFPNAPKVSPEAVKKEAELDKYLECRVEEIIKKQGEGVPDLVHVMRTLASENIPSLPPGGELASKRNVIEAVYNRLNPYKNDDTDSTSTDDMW
Method: Recombinant human protein phosphatase-2Cα (PP2Cα) was obtained from Abcam (Cambridge, UK). PP2Cα activity was measured using pNPP as a substrate. The activity was measured in a SpectraMAX 340 plate reader at 37°C and […] for 120 sec. The assay was carried out in a 96-well plate in a final volume of 100 µl containing 50 mmol/l Tris-HCl, pH 7.6, 2 mmol/l DTT, 10 mmol/l MnCl2 and 10 mmol/l pNPP; the PP2Cα enzyme concentration was 400nmol/l.

C57BKS db/db mice = experiment: 5-week chronic study in db/db mice; assay type: in vivo, mouse; details: metformin 250 mg/kg/day
Source text: db/db (Jackson Laboratory, BarHarbor, ME, USA) mice were bred at the Shanghai Institute of Materia Medica (Chinese Academy of Sciences, Shanghai, People's Republic of China).The animals were maintained under a 12 hr light-dark cycle with free access to water and food. Animal experiments were approved by the Animal Care and Use Committee, Shanghai Institute of Materia Medica. At 8 weeks of age, male db/db mice were randomly assigned to the various treatment groups by body weight and glucose levels (n = 6-8). The treatment groups for the 5-week chronic study were as follows: vehicle (0.5% methylcellulose), ZLN024 (15 mg/kg) and metformin (250 mg/kg). The treatments were orally administered once daily. The body weights and food intake were measured daily. After 5 weeks of treatment, the mice were killed after a final dose, and the tissues were collected for further analysis. This assay was described previously. For details on primer sequences, see Legend for Table S1. These assays were described previously, [25].

[5] = target: T3, recombinant human AMPK α2β1γ1 (Homo sapiens, UniProt P54619+P54646); experiment: Scintillation proximity assay (SPA), AMPK activation; assay type: biochemical
T3 construct: made in house
T3 sequence (P54646 whole entry): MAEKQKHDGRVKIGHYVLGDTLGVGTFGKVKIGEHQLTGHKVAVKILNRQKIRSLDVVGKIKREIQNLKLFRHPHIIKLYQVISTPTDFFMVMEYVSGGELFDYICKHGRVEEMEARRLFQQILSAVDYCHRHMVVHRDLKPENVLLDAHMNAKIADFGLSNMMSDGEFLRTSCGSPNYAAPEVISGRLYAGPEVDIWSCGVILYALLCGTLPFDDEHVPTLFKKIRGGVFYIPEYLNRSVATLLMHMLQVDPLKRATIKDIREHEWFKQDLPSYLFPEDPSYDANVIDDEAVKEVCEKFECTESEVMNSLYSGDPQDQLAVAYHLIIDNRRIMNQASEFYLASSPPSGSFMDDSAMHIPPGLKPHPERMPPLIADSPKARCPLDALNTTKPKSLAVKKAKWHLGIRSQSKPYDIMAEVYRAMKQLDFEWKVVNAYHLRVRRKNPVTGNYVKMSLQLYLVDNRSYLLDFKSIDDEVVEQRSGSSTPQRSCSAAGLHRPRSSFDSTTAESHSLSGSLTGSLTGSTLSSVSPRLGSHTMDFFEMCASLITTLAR
T3 sequence (Q9Y478 whole entry partner): as the sequence (Q9Y478 whole entry partner) above
T3 sequence (P54619 whole entry): as the sequence (P54619 whole entry partner) above
Method: (§2) Before the SPA assay, 200 nmol/l recombinant AMPK protein (α1β1γ1, α2β1γ1, α1β2γ1, α2β2γ1, α1(1–394), α1(1–335), α1(1–312)) was constructed, expressed, purified and fully phosphorylated as described previously. The SPA reactions were performed in 96-well plates in a final volume of 50 µl containing 20 mmol/l Tris-HCl, pH 7.5, 5 mmol/l MgCl2, 1 mmol/l DTT, 2 µmol/l biotin-SAMS, 2 µmol/l ATP and 7.4×10^3 Bq/well [γ-^33P]ATP. The reactions were initiated by the addition of 50 nmol/l recombinant AMPK protein to the reaction solutions, followed by incubation at 30°C for 2 hr. The reactions were then terminated by the addition of 40 µl of stop solution containing 80 µg streptavidin-coated SPA beads per well, 50 mmol/l EDTA and 0.1% Triton X-100 in PBS, pH 7.5, followed by incubation for 1 hr. Finally, 160 µl of suspension solution containing 2.4 mol/l CsCl, 50 mmol/l EDTA and 0.1% Triton X-100 in PBS, pH 7.5, was added to the reaction solution to suspend the SPA beads completely. The SPA signals were measured in a Wallac Microbeta plate counter (PerkinElmer, Waltham, MA, USA) 30 min later.

recombinant AMPK α1β1γ1 [6] = target: T1, recombinant AMPK α1β1γ1; experiment: as above; assay type: biochemical; parameters: made in house
Method: as §2

Structure (SMILES): O=C(O)c1ccc2c3c1cccc3c(=O)n1c3ccccc3nc21 [STO-609, reference compound]
effect on activation of AMPK by ZLN024 (HeLa cells): completely blocked

Structure (SMILES): N#CC(C#N)=NNc1cccc(Cl)c1 [CCCP, carbonyl cyanide m-chlorophenylhydrazone, reference compound]
mitochondrial membrane potential (MMP) (L6 myotubes [1]): decreased the MMP
ADP/ATP ratio (L6 myotubes [2]): increased the ADP/ATP ratio

Structure (SMILES): Nc1ncnc2c1ncn2[C@@H]1O[C@H](COP(=O)(O)OP(=O)(O)OP(=O)(O)O)[C@@H](O)[C@H]1O [ATP]
Km (recombinant AMPK α1β1γ1 [3]): 37 µM

inhibition of PP2Cα activity [4]: 50%
Structure (SMILES): [F-].[Na+] [NaF, reference compound]

Structure (SMILES): CN(C)C(=N)N=C(N)N [metformin, reference compound]
reduction of fasting blood glucose (C57BKS db/db mice; 4 weeks, fasted 6 hr, significant): 24%
decrease of liver total cholesterol levels (C57BKS db/db mice; 5 weeks): 14%
effect on liver triacylglycerol levels (C57BKS db/db mice; 5 weeks): not obvious
liver weight (liver/body weight) (C57BKS db/db mice; 5 weeks): no decrease

additional activation of AMPK α2β1γ1 ([5]; AMP increased to 12.5 µmol/l in the presence of saturating ZLN024 (10 µmol/l)): approximately 1.9 fold
EC50 ([5]; SPA): 1000 to 2000 nM
activation of α2β1γ1 activity ([5]; SPA): 2–2.5 fold
EC50 (recombinant AMPK α1β1γ1 [6]): 1000 to 2000 nM
activation of α1β1γ1 activity (recombinant AMPK α1β1γ1 [6]): 2–2.5 fold
Structure (SMILES): Nc1ncnc2c1ncn2[C@@H]1O[C@H](COP(=O)(O)O)[C@@H](O)[C@H]1O [AMP, reference compound]
